# From patent publication EP0068715A1, “Beta-lactam antibacterial agents, their preparation and use” (BEECHAM GROUP PLC, priority 1981, dated 1983)
# Columns and labels:
# Assay in all cases: standard MIC synergy test with amoxycillin
# Type in all cases: cell-based
# Conditions in all cases: amoxycillin alone, β-Lactamase Inhibitor: None
# E. coli JT39 = tested on: E. coli JT39
# From the text: (§1) In a standard MIC synergy test, the following data were obtained for the compounds of this invention:-
# Kleb. E70 = tested on: Kleb. E70
# From the text: as §1
# Proteus C889 = tested on: Proteus C889
# From the text: as §1
smiles,measurement,setting,value
CC1(C)S[C@@H]2[C@H](NC(=O)[C@H](N)c3ccc(O)cc3)C(=O)N2[C@H]1C(=O)O [amoxycillin],MIC of amoxycillin (μg/ml) E. coli JT39,E. coli JT39,2000 µg/mL
same,MIC of amoxycillin (μg/ml) Kleb. E70,Kleb. E70,500 µg/mL
same,MIC of amoxycillin (μg/ml) Proteus C889,Proteus C889,>2000 µg/mL
